Like-named read-outs stand apart in the source and are kept apart here.

Data set [1] concerns the target T1, GLUT1 (Homo sapiens, UniProt P11166).
T1 sequence (P11166 1-492): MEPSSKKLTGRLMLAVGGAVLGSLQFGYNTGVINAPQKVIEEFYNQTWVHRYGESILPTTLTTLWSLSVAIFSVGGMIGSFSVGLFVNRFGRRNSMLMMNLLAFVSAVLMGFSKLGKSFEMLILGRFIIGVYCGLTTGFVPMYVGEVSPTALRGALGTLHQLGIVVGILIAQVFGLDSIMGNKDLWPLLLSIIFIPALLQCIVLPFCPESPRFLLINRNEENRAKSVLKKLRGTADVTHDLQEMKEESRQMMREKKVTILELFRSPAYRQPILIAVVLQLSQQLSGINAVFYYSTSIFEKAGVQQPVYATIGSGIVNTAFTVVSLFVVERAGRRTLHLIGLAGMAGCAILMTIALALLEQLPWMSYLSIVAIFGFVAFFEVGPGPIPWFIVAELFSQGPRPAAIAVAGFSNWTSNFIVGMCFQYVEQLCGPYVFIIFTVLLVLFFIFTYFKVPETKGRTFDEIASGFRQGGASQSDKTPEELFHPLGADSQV
The note with it: in vitro data; cited from earlier work.

The conditions of data set [2]: rat.
For another data set, the system named is HL60 cells. The note with it: read-out: apparent Km for transport; cited from earlier work.
In data set [3] the target is T2, GLUT1 (Mus musculus, UniProt P17809).
T2 sequence (P17809 1-492): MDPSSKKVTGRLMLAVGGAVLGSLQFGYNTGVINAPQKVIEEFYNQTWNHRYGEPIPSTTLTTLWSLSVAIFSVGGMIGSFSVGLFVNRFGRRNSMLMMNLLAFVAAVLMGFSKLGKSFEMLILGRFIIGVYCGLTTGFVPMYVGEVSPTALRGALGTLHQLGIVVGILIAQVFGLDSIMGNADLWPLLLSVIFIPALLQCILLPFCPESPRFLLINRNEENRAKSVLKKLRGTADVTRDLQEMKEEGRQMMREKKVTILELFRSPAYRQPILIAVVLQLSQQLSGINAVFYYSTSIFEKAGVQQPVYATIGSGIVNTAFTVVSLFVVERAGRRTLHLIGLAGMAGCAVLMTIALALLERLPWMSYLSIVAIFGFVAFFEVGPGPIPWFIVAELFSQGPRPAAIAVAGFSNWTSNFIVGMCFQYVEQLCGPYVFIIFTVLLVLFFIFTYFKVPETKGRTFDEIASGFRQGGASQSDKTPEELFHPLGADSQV
The note with it: dose-dependent, 30-second time course, mice.

The nature of data set [4]: Tracer studies of brain accumulation in focal cerebral ischemia. Format: in vivo, C57/6J BL mice. Particulars: ischemic animals, 10 minutes or two hours of focal ischemia. Here is the method: (§1) Dithiothreitol (0.1 mmol/L) was then added separately to both DHA and ascorbate prior to use as a reducing agent. For experiments examining the effect of focal cerebal ischemia on the DHA's ability to: (1) cross the blood-brain barrier and, (2) protect cerebral tissue, we employed an intraluminal murine model of reversible (45 minutes) or permanent (24 h) right middle cerebral artery occlusion. (12) Anesthetized normothermic C57/6J BL mice were treated prior to ischemia via penile injection with either high dose DHA (250 mg/kg), low dose DHA (40 mg/kg), ascorbate (250 mg/kg), or sucrose (a non-metabolized, non-transportable marker of plasma volume). All animals underwent transcranial laser doppler measurement of cortical cerebral blood flow perioperatively. […] (11) In contrast, the experimental cohorts were followed for 24 hours and underwent pre-sacrifice neurological examination, as previously described. 13 Infarct volumes were calculated by digital analysis of serial, 2,3,5-triphenyltetrazolium-stained, sections, with volumes expressed as percentage of the ipsilateral hemisphere.^12 There were 67 animals in the reperfusion cohort (including vehicle, 40 mg/kg DHA, 250 mg/kg DHA, and 250 mg/kg ascorbate cohorts) and 54 animals in the nonreperfused cohort (including vehicle, 250 mg/kg DHA, and 250 mg/kg ascorbate cohorts). Comparisons were made between groups with a two-tailed Student t-test for unpaired variable. All studies were performed in accordance with an institutionally approved animal protocol.

Data set [5] concerns murine stroke (right middle cerebral artery occlusion). In words: Non-reperfused stroke: permanent (24 h) right middle cerebral artery occlusion. Format: in vivo, C57/6J BL mice. The note with it: 250 mg/kg. Here is the method:
as §1
Since clinical therapeutic antioxidant strategies might be employed prior to hospitalization and reperfusion, we examined the effect of high-dose DHA on non-reperfused stroke as well. […] This improved perfusion was associated with similar reductions in infarct volume (51±6% vehicle, 46±6% AA, and 26±5% high-DHA, p<0.01 vs. vehicle), and sacrifice neurological deficit scores (3.0±0.3% vehicle, 3.2±0.4% AA, and 1.9±0.2% high-DHA; p<0.005 for DHA vs. either control). As in the setting of reperfusion, DHA reduced mortality by nearly 50% (50% vehicle, 64% AA, and 30% high-DHA.

For data set [6] the following is noted: in vivo.
Data set [7] relates to murine stroke (right middle cerebral artery occlusion). In words: Reperfused stroke: reversible (45 minutes) right middle cerebral artery occlusion. Format: in vivo, C57/6J BL mice. Particulars: for cerebral infarct volume (percentage of the ipsilateral hemisphere): 24 hours. Here is the method:
as §1

For data set [8] the following is noted: 60 mg daily, human volunteers; cited from earlier work.
The conditions of data set [9]: mouse, in vivo; for serum radioactivity concentration: 15 seconds.
The conditions of data set [10]: cited from earlier work.
The nature of data set [11]: Carotid artery infusion of dehydroascorbic acid: loading of vitamin C into the brain. Format: in vivo. The note with it: 24 mg into carotid artery over forty minutes, rat. Here is the method:
An experiment was done in which the carotid artery of a subject rat was cannulated with a catheter and 24 mg of dehydroascorbic acid was injected into the artery. The injected dehydroascorbic acid was spiked with a tracer amount of radioactive (^14C-labeled) dehydroascorbic acid. The dehydroascorbic acid was infused over forty minutes and the brain was harvested. The amount of radioactive vitamin C was quantitated in the brain and total amount of injected vitamin C that accumulated in the brain was thus extrapolated. […] It is of note that the total vitamin C concentration in the normal adult rat brain is approximately 150 μg. A log-fold greater Vitamin C than baseline normal concentration of Vitamin C was thus achieved.

The conditions of data set [12]: previous studies (11); cited from earlier work.
The mark [13] stands for this setting: low dose 40 mg/kg pre-treatment.

What is called Km is the substrate concentration at which the rate is half of its maximum. In the case of `O=CC[C@@H](O)[C@H](O)[C@H](O)CO` [D-deoxyglucose, 2-Deoxy-D-glucose, reference compound], the “concentration necessary to block the transport of dehydroascorbic acid through GLUT1” value at GLUT1 [1] is “greater than 50 mM”. In [2], the “calculated BBB permeability-surface area product (PS)” value was 44±3.2 μl/min/gm brain tissue. In addition, the Km in the data set with HL60 cells was 2500 µM.
As to `O=C[C@@H](O)[C@H](O)[C@@H](O)[C@@H](O)CO` [L-glucose], the “inhibition of uptake of dehydroascorbic acid in the brain” value at GLUT1 [3] was “no effect”.
As a reminder, the mortality is the share of the test organisms that died. Low readings indicate more survivors, high ones fewer survivors. As to `O=C1O[C@H]([C@@H](O)CO)C(O)=C1O` [ascorbic acid, L-[1-^14C]-ascorbic acid, reference compound], the “accumulation, percent of injected dose (TD) per gram of brain tissue” value in [4] was “only trace levels”. In [5], the infarct volume was 46±6%, the mortality is 64% and the “pre-sacrifice regional cerebral cortical perfusion” value is on record as 15±3%. Further, the “radioactivity found in the brain, percent of injected dose (ID) per gram of brain tissue” value in [6] is on record as “only trace radioactivity”. Besides, in data set [7] (250 mg/kg pre-treatment), the neurological deficit score was 2.7±0.7, the overall mortality was 50%, the post-ischemic cerebral perfusion is 13±1% and the “cerebral infarct volume (percentage of the ipsilateral hemisphere)” value stood at 58±4%. Further, in [8], the steady-state plasma concentration entry is reported as “approximately 24 μM”. Moreover, in data set [9] (Balb/c, iv), the maximum brain accumulation worked out at 0.4 % ID/gram brain tissue and the serum radioactivity concentration worked out at 27 % ID/gram serum. Also, in [9] (Balb/c, iv, 2 hours), the brain radioactivity is 1.1 % ID/gram brain tissue. The “transport into the brain” value in data set [9] was “no measurable transport”.
For `O=C1O[C@H]([C@@H](O)CO)C(=O)C1=O` [dehydroascorbic acid], the stability entry in [10] (aqueous solution) is reported as “hydrolyses easily”. In addition, the stability result in data set [10] (low pH conditions) is reported as “stable”. In [4], the “accumulation, percent of injected dose (TD) per gram of brain tissue” value is about 4%. Moreover, in [5], the infarct volume amounted to 26±5%, the mortality amounted to 30% and the “pre-sacrifice regional cerebral cortical perfusion” value was 30±3%. The compound also gave a reduction of mortality in data set [5] (vs. controls) of about 50%. Further, the “radioactivity found in the brain, percent of injected dose (ID) per gram of brain tissue” value in data set [6] (Balb/c (mouse), Fischer F344 (rat), mouse and rat, 3 min) is “Approximately 4%”. In [7] (250 mg/kg pre-treatment), the neurological deficit score amounted to 1.9±0.2, the overall mortality is reported as 27%, the post-ischemic cerebral perfusion was found to be 40±4% and the “cerebral infarct volume (percentage of the ipsilateral hemisphere)” value came to 12±4%. In data set [7] (setting [13]), the neurological deficit score amounted to 1.6±0.2, the overall mortality was 24%, the post-ischemic cerebral perfusion is listed as 28±2% and the “cerebral infarct volume (percentage of the ipsilateral hemisphere)” value came to 22±4%. Further, in data set [11], the “amount of vitamin C accumulated in the brain” value worked out at 2.6 mg and the “vitamin C accumulated in the brain as share of injected dose” value was “approximately 11%”. Besides, in [12], the “form of vitamin C accumulating in the brains of DHA-injected animals that is ascorbic acid” value is over 85%. Moreover, the “calculated BBB permeability-surface area product (PS)” value in data set [2] is 136±12 μl/min/gm brain tissue. Besides, the Km with HL60 cells is 850 µM. In addition, in [9] (Balb/c, iv), the “brain radioactivity, maximum” value is 4.3 % of ID/gram brain tissue and the serum radioactivity concentration came to 8 % ID/gram serum. Further, the brain radioactivity in data set [9] (Balb/c, iv, 25 min) was determined as 3.3%.
On to `CC(C)C[C@H](N)C(=O)O` [leucine], for which the “inhibition of uptake of dehydroascorbic acid in the brain” value against GLUT1 [3] is listed as “no effect”.
On to `OC[C@H]1O[C@@](CO)(O[C@H]2O[C@H](CO)[C@@H](O)[C@H](O)[C@H]2O)[C@@H](O)[C@@H]1O` [sucrose, [fructose-1-^3H]-sucrose], for which the “accumulation, percent of injected dose (TD) per gram of brain tissue” value in [4] is on record as “only trace levels”. Also, in data set [6], the “radioactivity found in the brain, percent of injected dose (ID) per gram of brain tissue” value is reported as “only trace radioactivity”. In data set [9] (Balb/c, iv), the maximum brain accumulation amounted to 0.4 % ID/gram brain tissue. Further, in data set [9] (Balb/c, iv, 15 min), the brain radioactivity is recorded as under 0.1%.
